Test results reported in ChEMBL document CHEMBL5260838 (J Med Chem, 2019).
In brackets after ≈: the same amount, converted by molar mass.

How the values were obtained:
[1] = biological target: T1, Sodium channel protein type 9 subunit alpha (Homo sapiens, UniProt Q15858); assay: Displacement of [3H]GX-545 from human Nav1.7 alpha subunit expressed in HEK293 cells co-expressing beta1 subunit by liquid scintillation counting analysis; format: cell-based
[2] = biological target: T1, Sodium channel protein type 9 subunit alpha; assay: Inhibition of human Nav1.7 alpha subunit expressed in HEK293 cells co-expressing beta1 subunit at -60 mV holding potential by whole-cell patch voltage clamp electrophysiology recording; format: cell-based
[3] = Lipophilicity, logD of the compound at pH 7.4; format: physicochemical; conditions: buffer
[4] = Apparent permeability from apical to basolateral side in MDCK1 cells; format: ADME, cell-based, Canis lupus familiaris; conditions: dog, MDCK
[5] = Oral bioavailability in mouse at 30 mg/kg; format: ADME, organism-based; conditions: in vivo
[6] = AUC in mouse at 30 mg/kg, po; format: ADME, organism-based; set-up: dose 30 mg/kg, route po; conditions: in vivo
[7] = Volume of distribution at steady state in mouse at 1 mg/kg, iv; format: ADME, organism-based; conditions: in vivo, read-out: Vdss
[8] = Solubility of compound; format: physicochemical
[9] = Cmax in mouse at 30 mg/kg, po; format: ADME, organism-based; set-up: dose 30 mg/kg, route po; conditions: in vivo

T1 sequence (Q15858 whole entry): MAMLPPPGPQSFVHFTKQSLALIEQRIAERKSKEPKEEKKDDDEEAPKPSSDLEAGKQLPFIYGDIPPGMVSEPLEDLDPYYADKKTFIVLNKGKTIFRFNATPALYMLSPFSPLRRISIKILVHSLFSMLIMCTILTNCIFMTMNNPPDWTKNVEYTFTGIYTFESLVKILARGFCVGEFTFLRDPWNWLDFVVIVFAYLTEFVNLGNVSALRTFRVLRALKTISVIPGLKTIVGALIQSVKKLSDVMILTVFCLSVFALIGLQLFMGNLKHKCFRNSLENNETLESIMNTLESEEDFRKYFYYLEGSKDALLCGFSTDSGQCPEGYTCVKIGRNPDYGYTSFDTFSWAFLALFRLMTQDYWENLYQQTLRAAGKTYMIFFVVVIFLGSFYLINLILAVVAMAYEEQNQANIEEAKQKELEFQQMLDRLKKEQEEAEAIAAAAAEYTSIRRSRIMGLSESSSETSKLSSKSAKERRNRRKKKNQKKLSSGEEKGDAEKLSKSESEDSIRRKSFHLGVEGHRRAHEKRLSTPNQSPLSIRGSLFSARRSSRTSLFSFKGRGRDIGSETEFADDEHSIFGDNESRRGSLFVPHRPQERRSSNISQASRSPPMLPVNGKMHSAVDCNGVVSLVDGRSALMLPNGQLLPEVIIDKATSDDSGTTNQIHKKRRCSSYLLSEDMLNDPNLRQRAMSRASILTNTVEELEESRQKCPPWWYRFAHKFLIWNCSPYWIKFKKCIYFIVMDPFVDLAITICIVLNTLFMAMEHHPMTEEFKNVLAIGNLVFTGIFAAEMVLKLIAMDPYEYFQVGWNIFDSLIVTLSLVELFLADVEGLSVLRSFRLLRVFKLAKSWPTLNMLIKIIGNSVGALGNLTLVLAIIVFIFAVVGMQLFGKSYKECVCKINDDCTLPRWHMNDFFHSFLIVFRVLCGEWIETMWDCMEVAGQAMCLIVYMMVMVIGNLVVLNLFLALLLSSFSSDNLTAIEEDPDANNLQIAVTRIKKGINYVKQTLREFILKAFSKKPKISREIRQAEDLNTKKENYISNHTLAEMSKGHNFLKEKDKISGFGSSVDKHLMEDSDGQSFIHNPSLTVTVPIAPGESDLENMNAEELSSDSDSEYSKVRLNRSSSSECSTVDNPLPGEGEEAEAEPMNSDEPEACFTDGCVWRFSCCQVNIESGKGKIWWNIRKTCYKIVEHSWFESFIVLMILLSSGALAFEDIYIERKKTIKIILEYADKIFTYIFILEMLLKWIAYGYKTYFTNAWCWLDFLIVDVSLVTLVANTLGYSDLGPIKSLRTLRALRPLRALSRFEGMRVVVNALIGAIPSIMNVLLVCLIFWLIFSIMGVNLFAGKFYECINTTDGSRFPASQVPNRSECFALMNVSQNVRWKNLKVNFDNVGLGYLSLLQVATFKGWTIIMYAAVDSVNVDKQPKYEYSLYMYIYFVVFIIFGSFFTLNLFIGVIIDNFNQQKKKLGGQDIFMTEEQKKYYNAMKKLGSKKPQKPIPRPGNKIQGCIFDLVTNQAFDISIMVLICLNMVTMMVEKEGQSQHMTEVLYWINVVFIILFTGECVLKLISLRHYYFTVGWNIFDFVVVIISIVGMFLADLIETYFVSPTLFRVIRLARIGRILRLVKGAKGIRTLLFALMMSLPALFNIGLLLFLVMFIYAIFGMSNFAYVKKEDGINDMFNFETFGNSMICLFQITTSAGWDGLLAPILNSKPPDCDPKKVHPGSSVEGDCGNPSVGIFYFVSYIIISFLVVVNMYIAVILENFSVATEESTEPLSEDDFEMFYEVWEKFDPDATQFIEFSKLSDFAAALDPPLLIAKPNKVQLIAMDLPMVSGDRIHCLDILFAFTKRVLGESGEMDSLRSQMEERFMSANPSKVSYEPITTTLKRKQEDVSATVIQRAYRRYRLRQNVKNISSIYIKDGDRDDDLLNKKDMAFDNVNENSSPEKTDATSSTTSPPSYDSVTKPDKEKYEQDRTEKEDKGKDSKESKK

| SMILES | IC50 [1] [nM] | IC50 [2] [nM] | further results |
| --- | --- | --- | --- |
| COCCS(=O)(=O)NC(=O)c1cc(C2CC2)c(OCC2CCC(F)(F)CC2)cc1F | 304 | 75 |  |
| CCc1cc(C(=O)NS(C)(=O)=O)c(F)cc1OCC12CC3CC(CC(C3)C1)C2 | 15 | 6 |  |
| CS(=O)(=O)NC(=O)c1cc(C2CC2)c(OCC2CCCCC2)cc1F | 22 | 0.7 |  |
| CS(=O)(=O)NC(=O)c1cc(Cl)c(OCC2CCCC2)cc1F | 520 | 68 | logD ([3]; read-out: logD): 1.1 |
| CC1(COc2cc(F)c(C(=O)NS(=O)(=O)C3CC3)cc2C2CC2)CCC(C(F)(F)F)CC1 (stereo not given) | 10 | 6 |  |
| Cc1cc(C(=O)NS(C)(=O)=O)c(F)cc1OCC12CC3CC(CC(C3)C1)C2 | 37 | 6 |  |
| CS(=O)(=O)NC(=O)c1cc(C2CC2)c(OCC23CC4CC(C2)C(F)(F)C(C4)C3)cc1F | 8 | 3.1 |  |
| CS(=O)(=O)NC(=O)c1cc(C2CC2)c(OCC23CC4CC(CC(C4)C2)C3)cc1F | 6 |  |  |
| CC(C)c1cc(C(=O)NS(C)(=O)=O)c(F)cc1OCC12CC3CC(CC(C3)C1)C2 | 28 | 10 |  |
| CS(=O)(=O)NC(=O)c1cc(Cl)c(OCC23CC4CC(CC(C4)C2)C3)cc1F |  |  | Papp A→B [4]: 13 ×10⁻⁶ cm/s; bioavailability [5]: 100%; logD [3]: 3.5; AUC [6]: 240 µM·h; Vd [7]: 1.2 L/kg; solubility [8]: 31 µM (≈ 12.9 µg/mL); Cmax [9]: 45 µM |
| CS(=O)(=O)NC(=O)c1cc(Cl)c(OCC2CCOCC2)cc1F | > 10000 | 7400 | logD ([3]; read-out: logD): 0.21 |
| CS(=O)(=O)NC(=O)c1cc(F)c(OCC23CC4CC(CC(C4)C2)C3)cc1F | 640 | 41 |  |
